Assay type in all cases: cell-based, Human
Test [1] relates to Jurkat cells. As to the kind of experiment: Extracellular lactate level of 2DG-treated Jurkat cells (lactate oxidase, nanowire biosensor). The settings on record: after 24 hours. On the procedure: For lactate sensing, 0.1 unit/ml of lactate oxidase (LOX; L0638, SIGMA) was added in phenol red-free medium to convert lactate to pyruvate and H2O2 before lactate reaches the FET array (as depicted in FIG. 1D).
During experiments, cells were re-suspended in phenol red-free medium (11835-063, GIBCO) in the presence or absence of a drug, either methotrexate hydrate (MTX; M8407, SIGMA) or 2-deoxy-D-glucose (2DG; D6134, SIGMA), at a density of 1×10^6 cells/ml.
The correlation between extracellular lactate level of 2DG-treated Jurkat cells and a resultant cell proliferation rate after 24 hours was investigated.

The subject of test [2] is Jurkat cells. Briefly: pH sensing of drug-treated Jurkat cells (reductant-added medium, nanowire FET). The settings on record: 24-hour monitoring, culture medium. The text has this: A conversion of the modified FET into a pH sensor was achieved by using a reductant-added solution. After supplementing a culture medium with 0.1% v/v DEHA to reduce the modified FET surface, surface proton density varied by protonation or by deprotonation dominantly changes the measured current.
For pH sensing, 0.1% v/v DEHA was supplemented in the sensing medium to reduce the 9,10-anthraquinone monolayer on the FET surface to obtain 9,10-dihydroxyanthracene (see also FIG. 1d) and H2O2 simultaneously. Therefore, no significant amount of H2O2 in a DEHA-supplemented medium altered a measured signal. As a result, surface proton density, varied by protonation or by deprotonation, dominantly changes an acquired signal.

Test [3] relates to Jurkat cells. As to the kind of experiment: Cell proliferation rate / viability of drug-treated Jurkat cells (trypan blue, hemocytometer). The settings on record: for cell viability: 24-hour viability observation. The method, then: Human T lymphocytes, Jurkat (TIB-152, ATCC), were cultured and incubated at 37° C. under a humidified 5% CO2 atmosphere. The culture medium used was RPMI 1640 medium (52400, GIBCO) with 10% fetal bovine serum (FBS; 04-001-1A, Biological Industry) and 1% penicillin/streptomycin (15140, GIBCO). During experiments, cells were re-suspended in phenol red-free medium (11835-063, GIBCO) in the presence or absence of a drug, either methotrexate hydrate (MTX; […], SIGMA) or 2-deoxy-D-glucose (2DG; […], SIGMA), at a density of 1×10^6 cells/ml. Cell viability was estimated by using a hemocytometer to count trypan blue-stained cells. Relative cell count, presented in FIGS. 6B and 6E-6F, is a ratio of the cell count at t=24 hours to the initial cell count.

For test [4], the system named is Jurkat cells. As to the kind of experiment: 24-hour monitoring of extracellular ROS levels of drug-treated Jurkat cells using the nanowire biosensor. The following applies: t=6 hours, normalized by number of live cells. The method, then: For measurements of cellular metabolites/activity, cells were cultured in the chip, namely, in the culture compartment thereof (see, for example, FIG. 1A), while placing the chip in an incubator during measurements. A sample was introduced to the sensing compartment at 20 μl min^-1 by using a syringe pump. Human T lymphocytes, Jurkat (TIB-152, ATCC), were cultured and incubated at 37° C. under a humidified 5% CO2 atmosphere. The culture medium used was RPMI 1640 medium (52400, GIBCO) with 10% fetal bovine serum (FBS; 04-001-1A, Biological Industry) and 1% penicillin/streptomycin (15140, GIBCO). During experiments, cells were re-suspended in phenol red-free medium (11835-063, GIBCO) in the presence or absence of a drug, either methotrexate hydrate (MTX; […], SIGMA) or 2-deoxy-D-glucose (2DG; […], SIGMA), at a density of 1×10^6 cells/ml. Cellular samples were dispensed into the wells of the sensing chip (see FIGS. 1A and 1B) in an incubator. 24-hour monitoring of metabolic activity of drug-treated Jurkat cells by measuring extracellular ROS levels using the nanowire biosensor, was performed and the obtained data is presented in FIGS. 6A-G. Measured ROS levels were normalized by the number of live cells.

SMILES strings stand for the structures.

Regarding `O=CC[C@@H](O)[C@H](O)[C@H](O)CO` [2DG, 2-deoxy-D-glucose], the cellular lactate secretion result in the test on Jurkat cells [1] is recorded as “decreased”. Further, in the test on Jurkat cells [2], the “pH of treated cells versus control” value is listed as “more basic than the control”. The cell viability entry in the test on Jurkat cells [3] is given as “anti-proliferative activity”. In the test with Jurkat cells [3] (after 24 hours, relative cell count = count at t=24 hours / initial count), the cell proliferation rate entry is on record as “reduced”. Further, the ROS level entry in the test on Jurkat cells [4] is on record as “noticeable decrease”.
As to `CN(Cc1cnc2nc(N)nc(N)c2n1)c1ccc(C(=O)N[C@@H](CCC(=O)O)C(=O)O)cc1` [MTX, methotrexate hydrate], the cell viability entry in the test on Jurkat cells [3] is given as “anti-proliferative activity”. The ROS level result in the test with Jurkat cells [4] was “noticeable decrease”.

The values above are taken from patent publication US11275078B2, “Method and system for sensing” (Ramot at Tel-Aviv University Ltd., priority 2015, dated 2022).
